Assay results published in ChEMBL document CHEMBL3991601, “The target landscape of clinical kinase drugs” (Science, 2017).
Calls of active or inactive are those of the source.

Biological target: Serine/threonine-protein kinase 26 (Homo sapiens, UniProt Q9P289)
Note: in the data inactive means no Kd found up to 30 µM.

Chain of Serine/threonine-protein kinase 26 (Q9P289 whole entry): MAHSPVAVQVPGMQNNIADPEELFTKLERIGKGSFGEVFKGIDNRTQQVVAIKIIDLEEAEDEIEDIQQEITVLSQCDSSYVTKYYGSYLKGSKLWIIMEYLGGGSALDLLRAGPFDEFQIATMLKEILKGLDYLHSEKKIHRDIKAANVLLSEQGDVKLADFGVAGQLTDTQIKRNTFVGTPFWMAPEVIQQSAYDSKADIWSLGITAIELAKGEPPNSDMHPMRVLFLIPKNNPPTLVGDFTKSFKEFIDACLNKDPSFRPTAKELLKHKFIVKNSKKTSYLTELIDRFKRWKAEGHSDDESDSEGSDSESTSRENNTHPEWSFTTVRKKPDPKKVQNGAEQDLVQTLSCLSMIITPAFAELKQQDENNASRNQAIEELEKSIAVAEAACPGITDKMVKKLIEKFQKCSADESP

Structure (SMILES) | Kd
N[C@@H]1CCCN(c2c(/C=C3\SC(=O)NC3=O)cccc2-c2ccccc2)C1 | > 30 µM (inactive)
Cc1ccc(S(=O)(=O)Nc2nc3ccccc3nc2Nc2ccc3nsnc3c2)cc1 | > 30 µM (inactive)
CN1CC[C@@H](c2c(O)cc(O)c3c(=O)cc(-c4ccccc4Cl)oc23)[C@@H]1CO | > 30 µM (inactive)
Cc1cc(-c2cc(O)ccc2Cl)cc2nnc(Nc3ccc(OCCN4CCCC4)cc3)nc12 | > 30 µM (inactive)

Biological target: cAMP-dependent protein kinase catalytic subunit gamma (Homo sapiens, UniProt P22612)
Sequence (P22612 whole entry): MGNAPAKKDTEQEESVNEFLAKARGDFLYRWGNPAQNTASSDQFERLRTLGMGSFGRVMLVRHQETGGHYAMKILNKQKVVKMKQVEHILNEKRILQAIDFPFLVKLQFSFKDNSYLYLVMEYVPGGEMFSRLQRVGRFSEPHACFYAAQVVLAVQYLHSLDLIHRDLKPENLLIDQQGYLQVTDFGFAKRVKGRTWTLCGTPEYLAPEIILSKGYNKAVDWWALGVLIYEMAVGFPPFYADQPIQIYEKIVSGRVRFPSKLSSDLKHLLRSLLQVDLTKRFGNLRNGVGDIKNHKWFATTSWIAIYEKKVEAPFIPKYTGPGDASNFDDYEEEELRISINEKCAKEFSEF

Structure (SMILES) | Kd
N[C@@H]1CCCN(c2c(/C=C3\SC(=O)NC3=O)cccc2-c2ccccc2)C1 | > 30 µM (inactive)
Cc1ccc(S(=O)(=O)Nc2nc3ccccc3nc2Nc2ccc3nsnc3c2)cc1 | > 30 µM (inactive)
CN1CC[C@@H](c2c(O)cc(O)c3c(=O)cc(-c4ccccc4Cl)oc23)[C@@H]1CO | > 30 µM (inactive)
Cc1cc(-c2cc(O)ccc2Cl)cc2nnc(Nc3ccc(OCCN4CCCC4)cc3)nc12 | > 30 µM (inactive)

Biological target: T1, Ribosyldihydronicotinamide dehydrogenase [quinone] (Homo sapiens, UniProt P16083)
T1 sequence (P16083 whole entry): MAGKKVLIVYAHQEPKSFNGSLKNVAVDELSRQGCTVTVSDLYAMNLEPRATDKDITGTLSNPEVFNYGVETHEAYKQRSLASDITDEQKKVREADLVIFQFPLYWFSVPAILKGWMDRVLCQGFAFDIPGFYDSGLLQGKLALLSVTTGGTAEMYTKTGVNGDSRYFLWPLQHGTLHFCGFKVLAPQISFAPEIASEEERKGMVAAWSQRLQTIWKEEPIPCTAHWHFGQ

Structure (SMILES) | Kd
N[C@@H]1CCCN(c2c(/C=C3\SC(=O)NC3=O)cccc2-c2ccccc2)C1 | > 30 µM (inactive)
Cc1ccc(S(=O)(=O)Nc2nc3ccccc3nc2Nc2ccc3nsnc3c2)cc1 | > 30 µM (inactive)
CN1CC[C@@H](c2c(O)cc(O)c3c(=O)cc(-c4ccccc4Cl)oc23)[C@@H]1CO | > 30 µM (inactive)
Cc1cc(-c2cc(O)ccc2Cl)cc2nnc(Nc3ccc(OCCN4CCCC4)cc3)nc12 | > 30 µM (inactive)

Biological target: Bone morphogenetic protein receptor type-1A (Homo sapiens, UniProt P36894)
Sequence (P36894 whole entry): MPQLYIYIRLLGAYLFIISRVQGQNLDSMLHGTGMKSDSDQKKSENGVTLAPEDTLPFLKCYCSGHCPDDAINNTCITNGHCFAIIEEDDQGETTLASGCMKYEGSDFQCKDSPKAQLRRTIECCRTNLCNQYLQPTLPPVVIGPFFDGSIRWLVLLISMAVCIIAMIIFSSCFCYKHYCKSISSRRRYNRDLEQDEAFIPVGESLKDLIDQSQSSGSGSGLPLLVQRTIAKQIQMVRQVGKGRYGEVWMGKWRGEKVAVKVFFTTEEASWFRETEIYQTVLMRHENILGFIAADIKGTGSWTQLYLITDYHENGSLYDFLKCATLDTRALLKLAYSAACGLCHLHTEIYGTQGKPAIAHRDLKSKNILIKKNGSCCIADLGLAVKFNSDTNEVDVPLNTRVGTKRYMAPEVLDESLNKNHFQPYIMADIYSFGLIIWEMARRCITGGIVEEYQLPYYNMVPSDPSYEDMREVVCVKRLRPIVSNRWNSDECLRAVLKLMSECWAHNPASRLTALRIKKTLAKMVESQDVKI

Structure (SMILES) | Kd
N[C@@H]1CCCN(c2c(/C=C3\SC(=O)NC3=O)cccc2-c2ccccc2)C1 | > 30 µM (inactive)
Cc1ccc(S(=O)(=O)Nc2nc3ccccc3nc2Nc2ccc3nsnc3c2)cc1 | > 30 µM (inactive)
CN1CC[C@@H](c2c(O)cc(O)c3c(=O)cc(-c4ccccc4Cl)oc23)[C@@H]1CO | > 30 µM (inactive)
Cc1cc(-c2cc(O)ccc2Cl)cc2nnc(Nc3ccc(OCCN4CCCC4)cc3)nc12 | > 30 µM (inactive)

Biological target: T2, ADP/ATP translocase 2 (Homo sapiens, UniProt P05141)
T2 sequence (P05141 whole entry): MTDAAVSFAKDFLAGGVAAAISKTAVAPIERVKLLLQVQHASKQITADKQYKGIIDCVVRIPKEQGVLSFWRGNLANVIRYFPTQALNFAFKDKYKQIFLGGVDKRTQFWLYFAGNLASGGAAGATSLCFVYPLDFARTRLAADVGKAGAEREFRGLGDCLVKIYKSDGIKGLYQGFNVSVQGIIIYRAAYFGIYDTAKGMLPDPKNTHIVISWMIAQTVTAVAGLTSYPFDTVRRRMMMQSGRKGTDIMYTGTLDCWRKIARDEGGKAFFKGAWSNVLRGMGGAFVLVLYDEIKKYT

Structure (SMILES) | Kd
N[C@@H]1CCCN(c2c(/C=C3\SC(=O)NC3=O)cccc2-c2ccccc2)C1 | > 30 µM (inactive)
Cc1ccc(S(=O)(=O)Nc2nc3ccccc3nc2Nc2ccc3nsnc3c2)cc1 | > 30 µM (inactive)
CN1CC[C@@H](c2c(O)cc(O)c3c(=O)cc(-c4ccccc4Cl)oc23)[C@@H]1CO | > 30 µM (inactive)
Cc1cc(-c2cc(O)ccc2Cl)cc2nnc(Nc3ccc(OCCN4CCCC4)cc3)nc12 | > 30 µM (inactive)

Biological target: Actin-related protein 2 (Homo sapiens, UniProt P61160)

Structure (SMILES) | Kd
N[C@@H]1CCCN(c2c(/C=C3\SC(=O)NC3=O)cccc2-c2ccccc2)C1 | > 30 µM (inactive)
Cc1ccc(S(=O)(=O)Nc2nc3ccccc3nc2Nc2ccc3nsnc3c2)cc1 | > 30 µM (inactive)
CN1CC[C@@H](c2c(O)cc(O)c3c(=O)cc(-c4ccccc4Cl)oc23)[C@@H]1CO | > 30 µM (inactive)
Cc1cc(-c2cc(O)ccc2Cl)cc2nnc(Nc3ccc(OCCN4CCCC4)cc3)nc12 | > 30 µM (inactive)

Biological target: T3, Structural maintenance of chromosomes protein 1A (Homo sapiens, UniProt Q14683)
T3 sequence (Q14683 whole entry): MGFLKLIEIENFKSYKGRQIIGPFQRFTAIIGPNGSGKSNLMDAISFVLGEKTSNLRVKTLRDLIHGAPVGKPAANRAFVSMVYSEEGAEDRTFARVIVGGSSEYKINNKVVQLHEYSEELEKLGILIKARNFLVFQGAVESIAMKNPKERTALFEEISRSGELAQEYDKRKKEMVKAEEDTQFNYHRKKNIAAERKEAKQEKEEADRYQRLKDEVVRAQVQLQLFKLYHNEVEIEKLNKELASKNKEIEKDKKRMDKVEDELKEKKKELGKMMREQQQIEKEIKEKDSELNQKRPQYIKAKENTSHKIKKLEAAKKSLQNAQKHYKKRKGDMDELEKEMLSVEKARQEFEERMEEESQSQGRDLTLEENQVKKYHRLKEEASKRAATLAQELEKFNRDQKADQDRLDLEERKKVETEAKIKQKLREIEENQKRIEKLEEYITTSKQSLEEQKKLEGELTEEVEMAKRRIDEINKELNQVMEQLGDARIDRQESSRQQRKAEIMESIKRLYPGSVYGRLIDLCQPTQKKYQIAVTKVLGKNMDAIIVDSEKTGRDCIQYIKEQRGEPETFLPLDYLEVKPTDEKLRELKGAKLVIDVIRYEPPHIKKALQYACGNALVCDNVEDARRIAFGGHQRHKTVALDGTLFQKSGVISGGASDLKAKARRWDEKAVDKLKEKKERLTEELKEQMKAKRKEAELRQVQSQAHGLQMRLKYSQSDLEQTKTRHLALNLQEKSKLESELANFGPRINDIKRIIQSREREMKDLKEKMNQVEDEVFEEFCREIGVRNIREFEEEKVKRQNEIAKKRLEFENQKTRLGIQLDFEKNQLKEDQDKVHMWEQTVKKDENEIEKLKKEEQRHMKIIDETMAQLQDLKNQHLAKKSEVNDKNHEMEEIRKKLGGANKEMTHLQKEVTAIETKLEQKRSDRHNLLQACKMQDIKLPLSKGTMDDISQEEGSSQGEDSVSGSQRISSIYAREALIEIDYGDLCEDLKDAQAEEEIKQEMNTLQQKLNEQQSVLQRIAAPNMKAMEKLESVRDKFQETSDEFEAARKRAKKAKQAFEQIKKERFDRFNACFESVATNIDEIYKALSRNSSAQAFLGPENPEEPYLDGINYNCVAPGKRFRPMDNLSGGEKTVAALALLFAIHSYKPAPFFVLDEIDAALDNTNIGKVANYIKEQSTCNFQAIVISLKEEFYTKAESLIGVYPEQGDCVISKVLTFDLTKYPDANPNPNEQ

Structure (SMILES) | Kd
N[C@@H]1CCCN(c2c(/C=C3\SC(=O)NC3=O)cccc2-c2ccccc2)C1 | > 30 µM (inactive)
Cc1ccc(S(=O)(=O)Nc2nc3ccccc3nc2Nc2ccc3nsnc3c2)cc1 | > 30 µM (inactive)
CN1CC[C@@H](c2c(O)cc(O)c3c(=O)cc(-c4ccccc4Cl)oc23)[C@@H]1CO | > 30 µM (inactive)
Cc1cc(-c2cc(O)ccc2Cl)cc2nnc(Nc3ccc(OCCN4CCCC4)cc3)nc12 | > 30 µM (inactive)

Biological target: Serine/threonine-protein kinase/endoribonuclease IRE1 (Homo sapiens, UniProt O75460)
Sequence (O75460 whole entry): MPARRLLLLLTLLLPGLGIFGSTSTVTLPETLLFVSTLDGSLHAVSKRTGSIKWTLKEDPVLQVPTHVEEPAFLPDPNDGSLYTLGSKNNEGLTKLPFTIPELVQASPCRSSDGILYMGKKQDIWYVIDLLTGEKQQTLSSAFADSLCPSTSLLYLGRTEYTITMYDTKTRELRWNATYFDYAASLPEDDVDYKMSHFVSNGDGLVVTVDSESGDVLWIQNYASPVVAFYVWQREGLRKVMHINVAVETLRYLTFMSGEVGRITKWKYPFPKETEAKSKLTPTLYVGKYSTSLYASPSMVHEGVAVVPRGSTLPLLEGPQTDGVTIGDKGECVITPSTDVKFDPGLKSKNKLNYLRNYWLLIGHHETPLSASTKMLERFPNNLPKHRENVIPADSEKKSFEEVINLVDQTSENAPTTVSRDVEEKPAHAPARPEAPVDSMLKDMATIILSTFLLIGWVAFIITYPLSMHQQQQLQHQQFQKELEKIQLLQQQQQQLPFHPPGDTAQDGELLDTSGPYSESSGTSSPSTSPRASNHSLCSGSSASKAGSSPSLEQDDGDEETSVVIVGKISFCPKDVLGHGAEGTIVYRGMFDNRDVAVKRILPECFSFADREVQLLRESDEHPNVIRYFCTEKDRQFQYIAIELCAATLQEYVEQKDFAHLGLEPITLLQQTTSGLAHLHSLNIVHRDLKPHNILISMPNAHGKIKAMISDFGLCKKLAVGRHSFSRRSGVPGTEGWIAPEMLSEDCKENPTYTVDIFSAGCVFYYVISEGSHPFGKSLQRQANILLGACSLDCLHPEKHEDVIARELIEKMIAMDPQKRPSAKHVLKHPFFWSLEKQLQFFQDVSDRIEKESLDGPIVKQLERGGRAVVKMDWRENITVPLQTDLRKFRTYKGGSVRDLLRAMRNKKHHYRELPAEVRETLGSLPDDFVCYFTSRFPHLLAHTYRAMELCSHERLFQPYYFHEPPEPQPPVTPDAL

Structure (SMILES) | Kd
N[C@@H]1CCCN(c2c(/C=C3\SC(=O)NC3=O)cccc2-c2ccccc2)C1 | > 30 µM (inactive)
Cc1ccc(S(=O)(=O)Nc2nc3ccccc3nc2Nc2ccc3nsnc3c2)cc1 | > 30 µM (inactive)
CN1CC[C@@H](c2c(O)cc(O)c3c(=O)cc(-c4ccccc4Cl)oc23)[C@@H]1CO | > 30 µM (inactive)
Cc1cc(-c2cc(O)ccc2Cl)cc2nnc(Nc3ccc(OCCN4CCCC4)cc3)nc12 | > 30 µM (inactive)

Biological target: Casein kinase II subunit alpha' (Homo sapiens, UniProt P19784)
Sequence (P19784 whole entry): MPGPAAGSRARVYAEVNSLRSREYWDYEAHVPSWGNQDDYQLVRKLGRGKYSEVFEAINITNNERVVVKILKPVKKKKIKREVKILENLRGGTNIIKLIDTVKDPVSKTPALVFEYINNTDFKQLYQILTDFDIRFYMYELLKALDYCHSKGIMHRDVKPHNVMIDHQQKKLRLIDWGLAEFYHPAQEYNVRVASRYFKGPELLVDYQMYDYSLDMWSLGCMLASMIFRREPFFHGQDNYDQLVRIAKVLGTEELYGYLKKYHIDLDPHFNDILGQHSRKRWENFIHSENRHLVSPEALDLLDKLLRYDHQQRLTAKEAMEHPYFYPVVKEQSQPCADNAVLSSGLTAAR

Structure (SMILES) | Kd
N[C@@H]1CCCN(c2c(/C=C3\SC(=O)NC3=O)cccc2-c2ccccc2)C1 | 3.02 µM (active)
Cc1ccc(S(=O)(=O)Nc2nc3ccccc3nc2Nc2ccc3nsnc3c2)cc1 | > 30 µM (inactive)
CN1CC[C@@H](c2c(O)cc(O)c3c(=O)cc(-c4ccccc4Cl)oc23)[C@@H]1CO | > 30 µM (inactive)
Cc1cc(-c2cc(O)ccc2Cl)cc2nnc(Nc3ccc(OCCN4CCCC4)cc3)nc12 | > 30 µM (inactive)

Biological target: T4, Probable ATP-dependent RNA helicase DDX6 (Homo sapiens, UniProt P26196)
T4 sequence (P26196 whole entry): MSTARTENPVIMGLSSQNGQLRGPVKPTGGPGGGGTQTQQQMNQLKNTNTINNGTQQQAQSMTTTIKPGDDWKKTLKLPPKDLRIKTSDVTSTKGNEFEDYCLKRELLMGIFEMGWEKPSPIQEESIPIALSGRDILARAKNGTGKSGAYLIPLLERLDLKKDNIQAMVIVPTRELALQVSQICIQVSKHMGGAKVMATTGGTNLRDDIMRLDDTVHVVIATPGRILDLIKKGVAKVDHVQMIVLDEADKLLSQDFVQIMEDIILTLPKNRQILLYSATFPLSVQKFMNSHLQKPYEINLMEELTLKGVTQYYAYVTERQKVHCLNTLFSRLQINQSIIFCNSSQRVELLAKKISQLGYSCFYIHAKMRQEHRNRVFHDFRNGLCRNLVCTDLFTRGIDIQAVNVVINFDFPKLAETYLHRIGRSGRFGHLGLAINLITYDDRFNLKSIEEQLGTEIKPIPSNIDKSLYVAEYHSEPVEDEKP

Structure (SMILES) | Kd
N[C@@H]1CCCN(c2c(/C=C3\SC(=O)NC3=O)cccc2-c2ccccc2)C1 | > 30 µM (inactive)
Cc1ccc(S(=O)(=O)Nc2nc3ccccc3nc2Nc2ccc3nsnc3c2)cc1 | > 30 µM (inactive)
CN1CC[C@@H](c2c(O)cc(O)c3c(=O)cc(-c4ccccc4Cl)oc23)[C@@H]1CO | > 30 µM (inactive)
Cc1cc(-c2cc(O)ccc2Cl)cc2nnc(Nc3ccc(OCCN4CCCC4)cc3)nc12 | > 30 µM (inactive)
